Results on ten compounds are retold here after article PMC5568477 (Bioorganic & medicinal chemistry letters, 2017).

One assay addresses T1, olfactomedin domain of human myocilin (myoc-OLF) (Homo sapiens, UniProt Q99972).
T1 sequence (Q99972 244-503 limits assumed): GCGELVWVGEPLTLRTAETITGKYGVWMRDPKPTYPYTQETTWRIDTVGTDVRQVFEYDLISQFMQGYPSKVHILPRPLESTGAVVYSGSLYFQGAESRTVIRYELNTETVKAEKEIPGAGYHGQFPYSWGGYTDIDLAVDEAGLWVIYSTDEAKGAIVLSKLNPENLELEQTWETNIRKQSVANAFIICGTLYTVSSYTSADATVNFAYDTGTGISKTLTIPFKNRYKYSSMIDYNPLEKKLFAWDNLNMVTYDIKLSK
Description: Thermal shift assay by differential scanning fluorimetry. The format is binding.
Details: not given
For `Cc1cc(N(CCCl)CCCl)ccc1/C=N/NC(=O)Cc1cc(=O)oc2cc(O)ccc12` [NSC79688], the Kd was determined as 2 µM.

The same assay, now with this note: initial round of screening; DSF, 5 μM protein; protein alone Tm 49.83.
As for `CN(C)c1ccc(/C=C/C(=O)c2cc(Cl)ccc2O)cc1` [NSC11437], the Tm was 51.33 °C.

Take `COc1cc(C(=O)C(=O)c2ccc(O)c(OC)c2)ccc1O` [NSC16722]: the midpoint of thermal melting (Tm) was determined as 50.74 °C. Same read-out and setting: the figure for `O=C(/C=C/c1ccc(O)c(O)c1)c1ccccc1O` [NSC37433] is 66.27 °C; for `Cc1cc(N(CCCl)CCCl)ccc1/C=N/NC(=O)Cc1cc(=O)oc2cc(O)ccc12` [NSC79688] it is 51.43 °C. Same read-out and setting: under `O=C(Cn1ccc(=O)[nH]c1=O)Nc1ccc(C(=O)O)c(O)c1` [NSC93033] stands 51.49 °C; under `Nc1nc(N)c(/N=N/c2ccc(C(=O)O)cc2)c(N)n1` [NSC408734], 51.61 °C. On the same count and under the same terms, under `O=C1c2ccccc2C(=O)C1C(c1ccc([N+](=O)[O-])cc1)C1C(=O)c2ccccc2C1=O` [NSC643148] stands 51.85 °C.

Staying with this assay, now noted: second round best hit vs NSC37433.
Regarding `COc1cccc(NC(S)=Nc2ccc(O)cc2)c1` [NSC201634], the “increase in the affinity compared to the best hit from the initial round (NSC37433)” value was ~ 10,000 fold.

Still in this assay, the particulars now being: second round of screening, seeded with NSC37433.
Take `Cc1ccc(C(C)C)cc1NC(=O)Nc1ccc([N+](=O)[O-])cc1` [NSC46492]: the melting temperature (Tm) came to 57.96 °C. Still for that read-out and setting: the figure for `O=C(Nc1ccc(Oc2ccc(NC(=O)Nc3ccc([N+](=O)[O-])cc3)cc2)cc1)Nc1ccc([N+](=O)[O-])cc1` [NSC80735] is 62.86 °C; for `COc1cccc(NC(S)=Nc2ccc(O)cc2)c1` [NSC201634] it is 83.79 °C.
